Experimental data as given in patent US7163923B2, “Peptide deformylase activated prodrugs” (Celmed Oncology (USA), Inc., priority 2001, dated 2007).
Values after ≈ are worked out from the molar mass of the structure shown. Read-outs that look alike come from different tables or passages of the source.

Legend:
[1] = system: S. aureus; assay: MIC susceptibility testing (modified NCCLS, 384-well); assay type: cell-based; details: Staphylococcus aureus, read-out: MIC
Protocol: The NCCLS (National Committee for Clinical Laboratory Standards), method to determine MIC's of antimicrobial compounds is modified for high-throughput screening. All stocks of tested compounds are prepared in either water or in DMSO depending on solubility. At the highest concentration, DMSO content should not exceed 0.5%. Briefly, twenty 2-fold serial dilutions of test compounds from the highest concentration are made in a 384-well microtiter plate. Each well is inoculated with testing bacteria in broth to a final concentration of approximately 1–1.5×10^6 cells/ml. Bacterial growth is determined by the increase of optical density at 600 nm using a microplate reader (Tecan SpectraFluor Plus). The MIC is defined as the lowest concentration at which bacterial growth (equivalent to visible growth) was inhibited after 16 to 18 hours of incubation at the appropriate temperature required for the bacteria growth.
Using the assay provided above, the potency of NB2046 was compared to triclosan.

[2] = system: E. aerogenes; assay: as above; assay type: cell-based; details: Klebsiella aerogenes
Protocol: The NCCLS (National Committee for Clinical Laboratory Standards), method to determine MIC's of antimicrobial compounds is modified for high-throughput screening. All stocks of tested compounds are prepared in either water or in DMSO depending on solubility. At the highest concentration, DMSO content should not exceed 0.5%. Briefly, twenty 2-fold serial dilutions of test compounds from the highest concentration are made in a 384-well microtiter plate. […] Bacterial growth is determined by the increase of optical density at 600 nm using a microplate reader (Tecan SpectraFluor Plus).

In the case of `CSCCC(NC=O)C(=O)NC(CC(C)C)C(=O)Oc1cc(Cl)ccc1Oc1ccc(Cl)cc1Cl` (centres unmarked) [NB2046, 2-(2-formylamino-4-methylsulfanyl-butyrylamino)-4-methyl-pentanoic acid 5-chloro-2-(2,4-dichloro-phenoxy)-phenyl ester], the MIC ([1]; ATCC11632, S. aureus ATCC 11632, Exp. #1, Table 3) is reported as at most 125 ng/mL, the MIC ([1]; ATCC11632, S. aureus ATCC 11632, Exp. #2, Table 3) is reported as at most 125 ng/mL and the MIC ([1]; ATCC 11632 / MSSA, MSSA ATCC 11632, Exp. #1, Table 4) is reported as 32000 ng/mL (≈ 56900 nM). For the same compound, the MIC ([1]; ATCC 11632 / MSSA, MSSA ATCC 11632, Exp. #2, Table 4) was 16000 ng/mL (≈ 28500 nM), the MIC ([1]; ATCC 11632 / MSSA, MSSA ATCC 11632, Table 5) was 0.977 ng/mL (≈ 1.74 nM) and the MIC ([1]; ATCC13301, S. aureus ATCC 13301, Exp. #1, Table 3) was at most 125 ng/mL. It also gave an MIC ([1]; ATCC13301, S. aureus ATCC 13301, Exp. #2, Table 3) of at most 125 ng/mL, an MIC ([1]; ATCC 13301 / MSSA, MSSA ATCC 13301, Table 5) of 0.015 ng/mL (≈ 0.0267 nM) and an MIC ([1]; ATCC14154, S. aureus ATCC 14154, Exp. #1, Table 3) of at most 125 ng/mL. The MIC ([1]; ATCC14154, S. aureus ATCC 14154, Exp. #2, Table 3) was at most 125 ng/mL, the MIC ([1]; ATCC 14154 / MSSA, MSSA ATCC 14154, Table 5) was 0.977 ng/mL (≈ 1.74 nM) and the MIC ([1]; ATCC33591, S. aureus ATCC 33591, Exp. #1, Table 3) was at most 125 ng/mL. The MIC ([1]; ATCC33591, S. aureus ATCC 33591, Exp. #2, Table 3) was at most 125 ng/mL, the MIC ([1]; ATCC 33591 / MSSA, MSSA ATCC 33591, Table 5) was 15.6 ng/mL (≈ 27.8 nM) and the MIC ([1]; ATCC33592, S. aureus ATCC 33592, Exp. #1, Table 3) was at most 125 ng/mL. It also gave an MIC ([1]; ATCC33592, S. aureus ATCC 33592, Exp. #2, Table 3) of at most 125 ng/mL, an MIC ([1]; ATCC 33592 / MSSA, MSSA ATCC 33592, Table 5) of 0.488 ng/mL (≈ 0.868 nM) and an MIC ([1]; ATCC33593, S. aureus ATCC 33593, Exp. #1, Table 3) of at most 125 ng/mL. For the same compound, the MIC ([1]; ATCC33593, S. aureus ATCC 33593, Exp. #2, Table 3) was at most 125 ng/mL, the MIC ([1]; ATCC 33593 / MSSA, MSSA ATCC 33593, Table 5) was 0.488 ng/mL (≈ 0.868 nM) and the MIC ([1]; ATCC 33594 / MSSA, MSSA ATCC 33594, Exp. #1, Table 4) was at most 125 ng/mL. The MIC ([1]; ATCC 33594 / MSSA, MSSA ATCC 33594, Exp. #2, Table 4) was at most 125 ng/mL, the MIC ([1]; ATCC43300, S. aureus ATCC 43300, Exp. #1, Table 3) was at most 125 ng/mL and the MIC ([1]; ATCC43300, S. aureus ATCC 43300, Exp. #2, Table 3) was at most 125 ng/mL. The MIC ([1]; ATCC 43300 / MSSA, MSSA ATCC 43300, Table 5) was 0.977 ng/mL (≈ 1.74 nM), the MIC ([1]; ATCC700260, S. aureus ATCC 700260, Exp. #1, Table 3) was at most 125 ng/mL and the MIC ([1]; ATCC700260, S. aureus ATCC 700260, Exp. #2, Table 3) was at most 125 ng/mL. The MIC ([1]; ATCC 700260 / MSSA, MSSA ATCC 700260, Exp. #1, Table 4) was at most 125 ng/mL, the MIC ([1]; ATCC 700260 / MSSA, MSSA ATCC 700260, Exp. #2, Table 4) was 4000 ng/mL (≈ 7120 nM) and the MIC ([1]; ATCC 700260 / MSSA, MSSA ATCC 700260, Table 5) was 0.031 ng/mL (≈ 0.0552 nM). It also gave an MIC ([1]; ATCC700698, S. aureus ATCC 700698, Exp. #1, Table 3) of at most 125 ng/mL, an MIC ([1]; ATCC700698, S. aureus ATCC 700698, Exp. #2, Table 3) of at most 125 ng/mL and an MIC ([1]; ATCC 700698 / MSSA, MSSA ATCC 700698, Table 5) of 3.91 ng/mL (≈ 6.95 nM). The MIC ([1]; ATCC700699, S. aureus ATCC 700699, Exp. #1, Table 3) was 16000 ng/mL (≈ 28500 nM), the MIC ([1]; ATCC700699, S. aureus ATCC 700699, Exp. #2, Table 3) was 8000 ng/mL (≈ 14200 nM) and the MIC ([1]; ATCC 700699 / MRSA, MRSA ATCC 700699, Exp. #1, Table 4) was 32000 ng/mL (≈ 56900 nM). The MIC ([1]; ATCC 700699 / MRSA, MRSA ATCC 700699, Exp. #2, Table 4) was 32000 ng/mL (≈ 56900 nM), the MIC ([1]; ATCC 700699 / MSSA, MSSA ATCC 700699, Table 5) was at least 4000 ng/mL and the MIC ([1]; ATCC700787, S. aureus ATCC 700787, Exp. #1, Table 3) was at most 125 ng/mL. For the same compound, the MIC ([1]; ATCC700787, S. aureus ATCC 700787, Exp. #2, Table 3) was at most 125 ng/mL, the MIC ([1]; ATCC 700787 / MSSA, MSSA ATCC 700787, Table 5) was 7.81 ng/mL (≈ 13.9 nM) and the MIC ([1]; ATCC700788, S. aureus ATCC 700788, Exp. #1, Table 3) was at most 125 ng/mL. It also gave an MIC ([1]; ATCC700788, S. aureus ATCC 700788, Exp. #2, Table 3) of at most 125 ng/mL, an MIC ([1]; ATCC 700788 / MSSA, MSSA ATCC 700788, Table 5) of 62.5 ng/mL (≈ 111 nM) and an MIC ([1]; ATCC700789, S. aureus ATCC 700789, Exp. #1, Table 3) of at most 125 ng/mL. It also gave an MIC ([1]; ATCC700789, S. aureus ATCC 700789, Exp. #2, Table 3) of at most 125 ng/mL, an MIC ([1]; ATCC 700789 / MSSA, MSSA ATCC 700789, Table 5) of 15.6 ng/mL (≈ 27.8 nM) and an MIC ([2]; ATCC13048, E. aerogenes ATCC 13048, Exp. #1, Table 3) of 1000 ng/mL (≈ 1780 nM). For the same compound, the MIC ([2]; ATCC13048, E. aerogenes ATCC 13048, Exp. #2, Table 3) was 1000 ng/mL (≈ 1780 nM) and the MIC ([2]; ATCC29009, E. aerogenes ATCC 29009, Exp. #1, Table 3) was 250 ng/mL (≈ 445 nM).
